This is an account of results in patent publication US4753949A, “2-chloronicergoline having antihypoxic activity” (Richter Gedeon Vegyeszeti Gyar Rt., priority 1985, dated 1988).

The structures appear in SMILES notation.

In general, IC50 refers to the concentration that inhibits the measured activity by half.

Assay [1] concerns 45Ca2+ uptake into synaptosomes. As to the kind of experiment: 45Ca2+ uptake into synaptosomes. Type of assay: biochemical. The following applies: rat brain cortex synaptosomes, K+ (45 mmoles) induced, 37° C., pre-incubation 20 min; read-out: IC50 45Ca2+ (synaptosomal uptake). As for the experimental part:
Investigation of the ^45 Ca^2+ uptake into synaptosomes
The synaptosomal fraction was prepared from rat brain cortex according to the method of Wu et al. [J. Neurochem. 39, 700 (1982)], with a protein content of 20 mg/ml.
For the experiment, a buffer solution (112 mmoles of NaCl, 5 mmoles of KCl, 1.3 mmoles of MgCl2, 1.2 mmoles of NaH2 PO4, 1.2 mmoles of CaCl2, 10 mmoles of glucose and 20 mmoles of TRIS adjusted to pH 7 by carbogen at 37° C.) was used. The mixture containing the buffer solution, the compound to be tested and 1 mg of synaptosomes in a total volume of 1 ml was pre-incubated at 37° C. for 20 minutes and then, the K^+ (45 mmoles) induced ^45 Ca^2+ […] and, for control, the Na^+ (45 mmoles) induced ^45 Ca^2+ uptake were measured. The reaction was stopped by adding 5 ml of a buffer solution (120 mmoles of NaCl, 5 mmoles of KCl, 5 mmoles of EGTA and 20 mmoles of TRIS, at pH 7.4). […] The radioactivity remaining on the filter was determined in 10 ml of scintillation solution.

Assay [2] is described as follows: Antagonism of the acquisition-inhibitory effect of hypoxia (shuttle box, normobaric hypoxia, 6% O2). Type of assay: in vivo, rats (male SHR). As to conditions: for Antagonism of the acquisition-inhibitory effect of hypoxia, CAR Δ %: rats, third day, 6% O2. As for the experimental part:
(§1) The studies were carried out on male SHR rats weighing 160 to 180 g as well as on CFLP mice of both sexes weighing 18 to 21 g. The compounds to be tested were orally administered in a volume of 5 ml/kg of body-weight (in the case of rats) or in a volume of 10 ml/kg of body-weight (in case of mice) at the 60th minute before beginning the experiment.
(§2) The results are expressed as percentages.
Antagonism of the acquisition-inhibitory effect of hypoxia
Rats (n=4) were daily treated with various doses of the compounds to be tested, then conditioned in an automatic six-channel shuttle box (VKI) for 3 days [with the following parameters: 50 cycles/day, 15 seconds intersignal period, 15 seconds light stimulus, 10 seconds light and electric footshock (0.8 mA)] under normobaric hypoxic conditions (6% O2). The values of the conditioned avoidance responses on the third day were expressed as the percentage of the deviation from the control value (CAR Δ%).

The next assay concerns the target α1-adrenergic receptor. As to the kind of experiment: α1-adrenergic receptor binding (3H-prazosine). Further details: species or system Hannover Wistar rats. As to conditions: for IC50 value of α-adrenergic receptor activity (in words) / α-adrenergic receptor activity compared between 2-chloronicergoline and nicergoline (in words): Table 2 discussion; for IC50: rat cortex membrane, 0.5 nmole 3H-prazosine, 23° C., 30 min, pH 8.

The target in assay [3] is T1, α2-adrenergic receptor (Rattus norvegicus, UniProt P22909).
T1 sequence (P22909 1-465): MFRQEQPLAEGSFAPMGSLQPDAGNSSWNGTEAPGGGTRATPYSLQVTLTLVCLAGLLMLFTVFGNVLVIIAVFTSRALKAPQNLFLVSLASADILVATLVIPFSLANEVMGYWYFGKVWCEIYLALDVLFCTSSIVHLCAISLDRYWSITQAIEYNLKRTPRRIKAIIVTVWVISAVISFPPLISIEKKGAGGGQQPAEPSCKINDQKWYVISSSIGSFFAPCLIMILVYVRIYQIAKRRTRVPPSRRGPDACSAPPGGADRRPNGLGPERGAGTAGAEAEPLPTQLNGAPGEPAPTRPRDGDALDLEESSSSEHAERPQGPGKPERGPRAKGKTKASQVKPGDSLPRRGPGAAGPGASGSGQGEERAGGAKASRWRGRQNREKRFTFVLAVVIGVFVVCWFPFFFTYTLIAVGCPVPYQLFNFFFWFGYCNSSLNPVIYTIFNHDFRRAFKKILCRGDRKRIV
As to conditions: versus nicergoline.
Description: (§3) For the determination of the non-specific binding, 10 μmoles of phentolamine were used. Investigation of the α2 -adrenergic receptor binding
(§4) Hannover Wistar rats were decapitated, their cortexes were prepared and homogenized in a 30-fold volume of a buffer solution (50 μmoles of TRIS HCl, at pH 7.4). The membrane was centrifuged at 45000 g twice for 15 minutes and then suspended in the buffer in a concentration of 50 ml/g (in a protein concentration of 0.9 to 1.0 mg/ml).
(§5) For investigating the α2 -receptor binding, a membrane preparation, a ligand (1.0 nmole of ^3 H Rx 781094=^3 H-1 dazoxane) and the compound to be tested were used in a total volume of 1 ml. After an incubation at 23° C. for 20 minutes, the samples were filtered through a Whatman GF/B filter and washed 4 times with 4 ml of buffer solution each.
(§6) For the determination of the non-specific binding, 10 μmoles of phentolamine were used.

The target in another assay is T2, D-2 receptor (Rattus norvegicus, UniProt P61169).
T2 construct: the striatum from their cortex was prepared; from tissue; host or cells: striatum membranes of Hannover Wistar rats
The experiment in a line: D-2 receptor binding (3H-spiroperidol). As to conditions: for IC50: rat striatum, 0.5 nmole 3H-spiroperidol, 37° C., 15 min, pH 7.4. Further details: species or system Hannover Wistar rats. As for the experimental part: Investigation of the D-2 receptor binding
Hannover Wistar rats were decapitated and the striatum from their cortex was prepared. The striata were homogenized in a 10-fold volume of a cold buffer solution (50 mmoles of TRIS HCl, 120 mmoles of NaCl, 2 mmoles of KCl, 1 mmole of MgCl2 and 5 mmoles of CaCl2 at pH 7.4) and centrifuged at 45000 g for 15 minutes.
For investigating the D-2 receptor binding, a membrane preparation, a buffer, a ligand (0.5 nmole of ^3 H-spiroperidol) and the compound to be tested in a defined concentration were used in a total volume of 2 ml.

The target of assay [4] is T1, α2-adrenergic receptor. As to the kind of experiment: biochemical.
Description: as §3, §4, §5, §6
The nature of assay [5]: Learning-facilitating effect: one-trial passive avoidance. The class given is in vivo, mice (CFLP). As to conditions: for Facilitation of learning, avoidance latency period as % of the control: 5.0 mg/kg p.o., mice, retest after one week, control latency 164.0 ± 34.4 sec (nicergoline), 77.0 ± 16.4 sec (2-chloronicergoline). As for the experimental part:
as §1, §2
Investigation of the learning-facilitating effect
[W. B. Essmann and H. Alpern: Psychol. Rep. 41, 731 (1964)]
Mice (n=10) were treated with 5 mg/kg doses of the compounds to be tested, then the animals were conditioned by the one-trial passive avoidance method. The animals were placed on the platform of the test box, whereupon after entering into the dark box, they received an electric footshock (1.5 mA, 0.3 sec). One week later, the animals were retested: the mean of the latency period of the entering (avoidance) was compared to the control value and expressed as the percentage thereof.

Assay [6] is described as follows: Antihypoxic effect: survival time under hypobaric hypoxic conditions (170 mmHg). The class given is in vivo, rats (male SHR). The following applies: for Antihypoxic effect, survival time as % of the control: rats, 60 min before, control 3.3 ± 0.19 min. As for the experimental part:
as §1, §2
Investigation of the antihypoxic effect
[I. Baumel et al.: Proc. Soc. Exp. Ther. Biol. N.Y. 132, 629 (1969]
Rats (n=5) were treated with various doses of the compounds to be tested and after 60 minutes the survival time was measured under hypobaric hypoxic conditions (170 mmHg). In the Table, the survival time is expressed as the percentage of that of the control group.

The conditions of assay [7]: literature; cited from earlier work.
In a further assay the test system is α-adrenergic receptor. The following applies: Bernardi et al. 1975; cited from earlier work.

T2 sequence (P61169 whole entry): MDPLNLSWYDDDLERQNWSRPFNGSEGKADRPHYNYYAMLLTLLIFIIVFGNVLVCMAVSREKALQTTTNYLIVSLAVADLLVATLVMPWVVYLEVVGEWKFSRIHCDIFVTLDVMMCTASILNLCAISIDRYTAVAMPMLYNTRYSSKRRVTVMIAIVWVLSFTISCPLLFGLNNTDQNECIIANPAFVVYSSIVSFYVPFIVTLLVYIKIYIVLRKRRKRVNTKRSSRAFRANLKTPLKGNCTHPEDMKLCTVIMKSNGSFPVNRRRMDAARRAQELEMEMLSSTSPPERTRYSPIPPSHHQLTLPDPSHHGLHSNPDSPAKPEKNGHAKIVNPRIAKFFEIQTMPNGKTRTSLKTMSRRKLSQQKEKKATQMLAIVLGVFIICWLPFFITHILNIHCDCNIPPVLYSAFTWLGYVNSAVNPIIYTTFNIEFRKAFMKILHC

For `CO[C@]12C[C@@H](COC(=O)c3cncc(Br)c3)CN(C)[C@@H]1Cc1c(Cl)n(C)c3cccc2c13` [2-Chloronicergoline, 2-chloronicergoline], the half-maximal inhibitory concentration (IC50) in assay [1] is 7000 nM; at α1-adrenergic receptor it was 9.5 nM; on D-2 receptor, 877 nM; on α2-adrenergic receptor [4] it was 24.2 nM. Also, in assay [2] (2.5 mg/kg p.o.), the “Antagonism of the acquisition-inhibitory effect of hypoxia, CAR Δ %” value came out at 150%. In assay [2] (versus nicergoline), the “dose normalizing deteriorated performance under normobaric hypoxia, times lower than that of nicergoline” value turned out to be 4 times. At α1-adrenergic receptor, the “IC50 value of α-adrenergic receptor activity (in words)” value is “low”. Besides, the “α-adrenergic receptor activity compared between 2-chloronicergoline and nicergoline (in words)” value in the assay with α1-adrenergic receptor is “practically identical”. Besides, the “α-adrenoceptor selectivity (in words)” value in the assay on α1-adrenergic receptor (shown by D-2/α1 selectivity ratio) is “pronounced”. Also, the “α2-adrenoceptor activity, times as high as that of nicergoline” value at α2-adrenergic receptor [3] is listed as “about 13 times”. For the same compound, the “Selectivity ratio D-2/α1” value on D-2 receptor (ratio of IC50 values) is 92.3 nmole/nmole. Besides, at D-2 receptor (versus nicergoline), the “D-2 receptor activity, times lower than that of nicergoline” value is on record as 12 times. Moreover, the “Facilitation of learning, avoidance latency period as % of the control” value in assay [5] is 182%. Besides, the “learning-facilitating effect compared with nicergoline (in words)” value in [5] (same doses, versus nicergoline) is listed as “significantly better than that of nicergoline”. Also, the “hypoxic tolerance (in words)” value in assay [6] (1.0 mg/kg) is given as “significantly increased”. The “Antihypoxic effect, survival time as % of the control” value was 155% in [6] (1.0 mg/kg p.o.) and 276% in assay [6] (2.5 mg/kg p.o.).
Regarding `CO[C@]12C[C@@H](COC(=O)c3cncc(Br)c3)CN(C)[C@@H]1Cc1c(Br)n(C)c3cccc2c13` [2-bromonicergoline], the “vasodilatory effect (in words)” value in assay [7] is on record as “vasodilatory”. Besides, the “α-adrenerg blocking effect (in words)” value in the assay on α-adrenergic receptor was “α-adrenerg blocking effect”.
In the case of `CO[C@]12C[C@@H](COC(=O)c3cncc(Br)c3)CN(C)[C@@H]1Cc1cn(C)c3cccc2c13` [Nicergoline, 1,6-dimethyl-10α-methoxyergoline-8β-methanol 5-bromonicotinate], the half-inhibitory concentration (IC50) in assay [1] is 26700 nM; at α1-adrenergic receptor, 5.3 nM; on D-2 receptor, 71.4 nM; on α2-adrenergic receptor [4] it was 176 nM. Further, the “Antagonism of the acquisition-inhibitory effect of hypoxia, CAR Δ %” value in assay [2] (10.0 mg/kg p.o.) is given as 150%. Moreover, the “IC50 value of α-adrenergic receptor activity (in words)” value on α1-adrenergic receptor is given as “low”. Besides, in the assay with α1-adrenergic receptor, the “α-adrenergic receptor activity compared between 2-chloronicergoline and nicergoline (in words)” value is listed as “practically identical”. The “vasodilatory effect (in words)” value in assay [7] is “peripheral vasodilatory agent”. Also, the “Facilitation of learning, avoidance latency period as % of the control” value in assay [5] was found to be 131%. Moreover, the results for the “Antihypoxic effect, survival time as % of the control” value in assay [6] (1.0 mg/kg p.o.) and in assay [6] (2.5 mg/kg p.o.) were 103% and 109%, respectively.
